Results: PMC5447021, “TNF Lectin-Like Domain Restores Epithelial Sodium Channel Function in Frameshift Mutants Associated with Pseudohypoaldosteronism Type 1B” (Frontiers in Immunology, 2017)

What was measured:
Format in all cases: cell-based, human
[1] = tested on: αT169fs (co-expressed with βγ-ENaC); test: Whole-cell patch clamp, αT169fs + WT βγ; settings: read-out: EC50, solnatide, HEK-293, whole-cell, -100 mV, n = 9
Method: (§1) Point mutations of α-, β-, γ- and δ-hENaC and PHA1B frameshift mutations of α-hENaC were prepared with the QuikChange Lightning Site-Directed Mutagenesis Kit (Agilent Technologies, CA, USA). Mutagenic primers were designed individually with the Primer Design Program provided on the producer’s website or for the frameshift mutations the same base changes as reported in patients (see Table 2) were performed. Primers were ordered from Sigma-Aldrich, Vienna, Austria.
(§2) HEK-293 cells were transfected 1 day after cell seeding using X-tremeGENE HP DNA transfection reagent (Roche Diagnostics, Mannheim, Germany) according to the manufacturer’s protocol. A set of WT or mutant αβγ- or δβγ-hENaC, or α-, β-, γ-, or δ-hENaC alone was used, and the ratio of DNA to transfection reagent was 1:3. The expression was highest 48–72 h after transfection.
(§3) Electrophysiological experiments were performed as described in detail by Shabbir et al. ([16]). […] Currents were recorded with the patch clamp method in the whole-cell mode. The chamber contained 1 ml of the bath solution of the following composition (in mM): 145 NaCl, 2.7 KCl, 1.8 CaCl2, 2 MgCl2, 5.5 glucose, and 10 HEPES, adjusted to pH 7.4 with 1 M NaOH solution. Micropipettes were pulled from thin-walled borosilicate glass capillaries (Harvard Apparatus, Holliston, MA, USA) with a DMZ Zeitz Puller to obtain electrode resistances ranging from 2 to 5 MΩ. […]

[2] = tested on: αS452fs (co-expressed with βγ-ENaC); test: Whole-cell patch clamp, αS452fs + WT βγ; settings: read-out: EC50, solnatide, HEK-293, whole-cell, -100 mV, n = 5, p < 0.01 vs WT
Method: as §1, §2, §3

αS452fs = test: Membrane abundance of αS452fs; settings: 200 nM, relative to WT control (=1), own control 1.11 ± 0.25, p < 0.001 vs control
Method: Cell surface biotinylation was performed as previously described ([26]). In brief, A549 cells or transiently transfected HEK-293 cells were grown in 10 cm dishes in 37°C, 5% CO2 incubator in DMEM medium supplemented with 5% FBS. […] Medium was aspirated, and then cells were washed twice with 10 ml ice-cold phosphate-buffered saline (PBS), covered with 2.5 mg EZ-Link Sulfo-NHS-SS-Biotin (Thermo Scientific, Rockford, USA), dissolved in 10 ml ice-cold PBS, and incubated at 4°C with gentle agitation for 30 min. Fifty milliliters of quenching solution were added to cells; then cells were scraped in solution and transferred to fresh 50 ml tube. Cell suspension was centrifuged at 500 × g for 3 min. Supernatant was discarded, and 5 ml of Tris-buffered saline (TBS) was added to the cell pellet. The cell pellet was resuspended and centrifuged at 500 × g for 3 min. Supernatant was discarded and cell pellet was resuspended in lysis buffer containing protease inhibitor cocktail (10 µM pepstatin A, 10 µM phenylmethylsulfonyl fluoride, and 10 µM leupeptin) and transferred to fresh 1.5 ml centrifuge tube. Cell pellet was then homogenized on ice by ultrasonication using 1 s bursts and incubated on ice for at least 30 min. Intact cells and nuclei were pelleted by centrifugation at 10,000 × g for 2 min under cooling conditions. […] Exposed films were scanned and quantified using ImageJ (NIH, MD, USA). […]

## C[C@@H]1NC(=O)CNC(=O)[C@H](CCC(=O)O)NC(=O)[C@@H]2CCCN2C(=O)[C@H]([C@@H](C)O)NC(=O)[C@H](CCC(=O)O)NC(=O)[C@H](CCCNC(=N)N)NC(=O)[C@H](CCC(N)=O)NC(=O)CNC(=O)[C@@H](N)CSSC[C@@H](C(=O)O)NC(=O)[C@H](Cc2ccc(O)cc2)NC(=O)[C@H](Cc2c[nH]c3ccccc23)NC(=O)[C@@H]2CCCN2C(=O)[C@H](CCCCN)NC(=O)[C@H](C)NC(=O)[C@H](CCC(=O)O)NC1=O [solnatide, L-cysteine, L-cysteinylglycyl-L-glutaminyl-L-arginyl-L-α-glutamyl-L-threonyl-L-prolyl-L-α-glutamylglycyl-L-alanyl-L-α-glutamyl-L-alanyl-L-lysyl-L-prolyl-L-tryptophyl-L-tyrosyl-, cyclic (1→17)-disulfide]
[1]
  EC50: 0.0583 ± 0.0052 µM
[2]
  EC50: 0.0685 ± 0.0041 µM
αS452fs; 5 min
  Membrane abundance, solnatide 5 min: 1.36 ± 0.11
αS452fs; 10 min
  Membrane abundance, solnatide 10 min: 1.94 ± 0.08
